Reference: PubChem BioAssay (NCI)
Several values for one entry are separate records, joined by “and”; a condition that tells them apart may be missing. Identical values can stand only once.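 Exposure lasted 48 hours, with cells grown in 96-well plates and compounds tested at five concentrations. The concentration for 50% growth inhibition is given as GI50. TGI marks complete inhibition of growth.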

What was measured:
Assay in all cases: NCI tumour cell line growth inhibition, 48 h
[1] = system: BT-549 breast
[2] = system: MDA-N
[3] = system: PC-3 prostate
[4] = system: SN12C renal
[5] = system: 786-0 renal
[6] = system: DMS 273 small cell lung
[7] = system: HOP-18 NSCLC
[8] = system: KM20L2 colon
[9] = system: P388 leukemia
[10] = system: P388/ADR leukemia
[11] = system: SN12K1 renal
[12] = system: SNB-78 CNS
[13] = system: XF 498 CNS

| Structure (SMILES) | TGI [1] [µM] | TGI [2] [µM] | TGI [3] [µM] | TGI [4] [µM] | TGI [5] [µM] | TGI [7] [µM] | TGI [8] | TGI [13] | further results |
| --- | --- | --- | --- | --- | --- | --- | --- | --- | --- |
| S=C1SC(=Nc2ccccc2)C(=Nc2ccccc2)N1c1ccccc1 | > 100 | > 100 | > 100 | > 100 | – | – | – | – | – |
| CC(C)=CC1C(COC(=O)c2cc3c(cc2Cl)OCO3)C1(C)C (stereo not given) | 81.8 | > 100 | > 100 | > 100 | > 100 | – | – | – | – |
| CC1C(=O)OC2CC[N+]3(CC(=O)c4ccc(Br)cc4)CC=C(COC(=O)C(C)(O)C1(C)O)C23 (stereo not given) | – | – | – | > 375 | – | > 375 | > 266 µM | > 375 µM | TGI [6]: > 375 µM; TGI [9]: > 174 µM; TGI [10]: > 375 µM; TGI [11]: > 375 µM; TGI [12]: > 174 µM |
| N#C[S-].[Nd+3].c1cnc2c(c1)ccc1cccnc12.c1cnc2c(c1)ccc1cccnc12.c1cnc2c(c1)ccc1cccnc12 | – | – | – | 14.2 | 11.8 | 7.53 | 15.3 µM | 9.61 µM | GI50 [7]: 0.787 µM; GI50 [8]: 1.11 µM; GI50 [13]: 4 µM |
| CN1C(=O)c2ccccc2NC(=O)c2cnn(C)c21 | – | – | – | > 100 | – | > 100 | > 100 µM | > 100 µM | TGI [6]: > 100 µM; TGI [9]: > 100 µM; TGI [10]: > 100 µM; TGI [11]: > 100 µM; TGI [12]: > 100 µM |
| CC1=C(C)C(=O)O[C@@H]([C@](C)(O)[C@]2(O)CC[C@@]3(O)[C@@H]4C[C@H]5O[C@]56[C@@H](O)C=CC(=O)[C@]6(C)[C@H]4CC[C@]23C)C1 | – | – | – | 6.59 | – | 2.44 | 4 µM and 1.35 µM | 0.819 µM and 0.8 µM | GI50 [6]: 1.5 µM and 0.252 µM; TGI [6]: 5.32 µM and 3.13 µM; GI50 [8]: 0.335 µM and 0.125 µM; GI50 [9]: 0.17 µM and 0.0616 µM; GI50 [10]: 2.5 µM and 0.487 µM; TGI [10]: 98.8 µM and 250 µM; GI50 [11]: 1.4 µM and 5.89 µM; TGI [11]: 6.39 µM and 21.6 µM; GI50 [13]: 0.082 µM |
| O=c1[nH]c(Nc2ccc(F)c(Cl)c2)nc2nc[nH]c12 | > 100 | > 100 | > 100 | > 100 | > 100 | – | – | – | – |
| COc1cc(O)cc(/C=C/c2ccc(O)cc2)c1 | 39.6 | – | > 100 | 77.8 | > 100 | – | – | – | – |
| COCO[C@@H]1C[C@H]2C(O)Nc3ccccc3C(=O)N2C1 (stereo not given in full) | – | > 100 | > 100 | – | – | – | – | – | – |
| CC(C)(C)NCc1cc(Nc2ccnc3cc(Cl)ccc23)cc(-c2ccc(Cl)cc2)c1O | – | 3.19 | 8.22 | 8.9 | 3.98 | – | – | – | – |
| COCc1nc2c(OC)cc(-c3nc4nc(N5CCN(C)CC5)ccc4[nH]3)c(OC)c2[nH]1 | > 100 | > 100 | > 100 | > 100 | > 100 | – | – | – | – |
| Nc1ccccc1CCCC(=O)O | > 100 | > 100 | > 100 | > 100 | > 100 | – | – | – | – |
| Cc1cc(NC(=S)Nc2ccccc2)c(NC(=S)Nc2ccccc2)cc1C | – | – | – | > 100 | – | > 100 | > 92 µM | 84 µM | TGI [6]: > 100 µM; TGI [9]: 13.5 µM; TGI [10]: 19.1 µM; TGI [11]: > 59.1 µM |
| O=C(O)CCCCCCC[C@@H]1S[C@H]1CCCCCCO | – | – | – | > 100 | – | > 100 | > 100 µM | > 100 µM | TGI [6]: > 100 µM; TGI [9]: > 100 µM; TGI [10]: > 100 µM; TGI [11]: > 100 µM; TGI [12]: > 100 µM |
| COc1cc2c(cc1OCCCOc1cc(-c3ccc(F)cc3)nc(C)n1)N=C[C@@H]1CCCN1C2=O | – | – | – | 32.3 | 31.5 | – | – | – | – |
| CCSc1nc(N)c2c(-c3ccc(OC)c(OC)c3)c3c(nc2n1)CCCC3 | > 100 | > 100 | > 100 | > 100 | – | – | – | – | – |
| CN(C)c1ccc(/C=C2/SC(=S)NC2=O)cc1 | > 100 | > 100 | > 100 | > 100 | > 100 | – | – | – | – |
| Cn1c2ccccc2c2c(-c3ccccc3)[n+]3ccccc3nc21 | 54.7 | – | > 100 | 61.6 | 65.4 | – | – | – | – |
